Source: patent EP4483866A1, “PHARMACEUTICAL COMPOSITIONS FOR THE TREATMENT OR PREVENTION OF CANCER” (Makrolife Biotech GmbH, priority 2023, dated 2025)

What was measured:
MCF-7, HUVEC, HepG2 = experiment: Determination of cell growth and viability (cell count, trypan blue exclusion); type: cell-based, human
Procedure: The tumor models utilized in these experiments are as follows: • Diagram A: MCF-7 (breast cancer cells), • Diagram B: HUVEC (human umbilical vein endothelial cells) and • Diagram C: HepG2 (human liver cancer cells).
Cell growth of an untreated and resveratrol derivative (MLB007R1) treated cell culture was compared. Tumor cell lines (MCF-7 (breast cancer cells), HUVEC (human umbilical vein endothelial cells) and HepG2 (human liver cancer cells)) were cultured in RPMI 1640 cell medium and exposed to 60 µg/ml resveratrol derivative polarized macrophages (10 000/ well). Cell growth, cell cycle disruption and apoptosis were assessed using the trypan blue exclusion method.
Cells were seeded in 24-well tissue culture plates (Falcon) at a concentration of 1×10^5 cells/ml and allowed to adhere overnight. […] Cell growth and viability were assessed every 12 hours. Trypsinized cells were manually counted using a hemocytometer, and cell viability was determined using the trypan blue dye exclusion assay.
Initially, cell number was measured after incubation to 200 000 cells per culture.
The kinetics of cell growth on human MCF-7 breast cancer cells were cultured and measured for 12, 24 and 36 hours in culture medium containing the indicated drug-polarized macrophages. […] Tumor cell viability and cell growth were determined using the trypan blue assay and cell count, respectively. […]

[1] = tested on: HepG2, HUVEC, PaCA-2, MDA-MB-231, MCF-7, T24, AsPc-1, Panc-1; experiment: Cell Viability Assay (MTT), tumor cells with MLB007R1 polarized macrophages; type: cell-based, human; settings: for cell death: 60 µg/ml, all tumor models
Description: The following tumor models and cell lines have been used to proof the anti-tumoral properties of the derivatives of the invention: • Diagram A: HepG2 (human liver cancer cells), • Diagram B: HUVEC (human umbilical vein endothelial cells, • Diagram C: PaCA-2 (human pancreatic cancer cells), • Diagram D: MDA-MB-231 (highly aggressive, invasive and poorly differentiated triple-negative human breast cancer cells), • Diagram E: MCF-7 (human breast cancer cells), • Diagram F: T24 (human urinary bladder cancer cells), • Diagram G: AsPc-1 (human pancreatic tumor cells) and • Diagram H: Panc-1 (human pancreatic cancer cells).
In the examples, the resveratrol derivative MLB007R1 was applied at concentrations of 0 µg/ml, 10 µg/ml, 20 µg/ml, 40 µg/ml and 60 µg/ml. As a control, an underivatized agent was used at a concentration of 60 µg/ml. The dead cells were measured in percentage after 0, 12, 24 and 36 hours.
Tumor cell lines HUVEC (human umbilical vein endothelial cells), paCA-2 (human pancreatic cancer cells), MDA-MB-231 (highly aggressive, invasive and poorly differentiated triple-negative breast cancer cells), HepG2 (human liver cancer cells), MCF-7 (breast cancer cells), T24 (human urinary bladder cancer cells), AsPc-1 (human pancreatic tumor cells), Panc-1 (human pancreatic cancer cells) were seeded in 96-well plates ([…]) and divided into two groups: the untreated control group and the active compound resveratrol derivative treated group. Cells in the normal group were incubated under normal growth conditions. In the resveratrol derivative (MLB007R1) treated group, the cells were pre-incubated with differentiated and polarized macrophages (5x10^5 cells/well) for 24 hours with different final concentrations of the resveratrol derivative.
Wells were then washed three times with phosphate buffered saline (PBS) and incubated again for 4 hours with […] RPMI 1640 containing 10% fetal bovine serum. The medium was then replaced with fresh medium serially incubated with different concentrations of the lead compound and incubated with the macrophages, and the plates were incubated for 12, 24, and 36 hours. The medium containing the resveratrol derivative polarized macrophages was replaced every 12 h with freshly prepared medium. Wells were then washed three times with PBS and incubated again for 4 h, adding […] of RPMI 1640 and […] of MTT solution (5 mg/mL). After removal of the culture medium, […] of DMSO was added to dissolve the precipitate, and the absorbance at 570 nm of the resulting solutions was measured using a CODA Automated EIA Analyzer (Bio-Rad Laboratories, Hercules, CA, USA).
The cytotoxicity of the resveratrol derivative compound was evaluated on all cancer cell lines using the MTT method.

MCF-7 cells = experiment: Induction of apoptosis assessed by confocal fluorescence microscopy (PI staining); type: cell-based, human; settings: for cell death: 12h
Procedure: To confirm the flow cytometry results, the induction of apoptotic cell death by our MLB007R1 compound was examined by confocal fluorescence microscopy. MCF-7 tumor cells were treated with the compound-polarized macrophages (10 000/well) at concentrations of 0, 20, 40, and 60 µg/ml for 12 hours. Induction of apoptotic cell death was accompanied by characteristic ultrastructural changes, such as chromatin condensation, nuclear fragmentation, and collapse of the cell into membrane-bound apoptotic bodies.
Confocal laser scanning microscopy (CLSM). Analysis of apoptosis-like morphological changes was performed on cells grown on coverslips and fixed with 4% paraformaldehyde in PBS (pH 7.4) for 10 minutes at room temperature (RT). After washing in PBS, the samples were stained for nuclear labeling with 2 µg/ml PI and 0.1 mg/ml RNase for 5 minutes at RT. Coverslips were mounted on glass slides in the presence of Glycerol/PBS at a ratio of 4:1 and observed with a LEICA TCS 4D confocal laser scanning microscope equipped with an argon/cripton laser and oil immersion objectives. The excitation and emission wavelengths were 488 and 590 nm, respectively. The images were recorded in pseudocolor.

[2] = tested on: ovarian cancer cells (cell line A2780); experiment: Viability and apoptosis of ovarian cancer cells with polarized macrophages (interference light microscopy, PI); type: cell-based, human
Procedure: Diagrams A and C show as a control the cells after treatment with DMSO.
Diagrams B and D show the cells treated with 60 µg/ml MLB007R1 after 12 h.
The present study explores the response of ovarian cancer cells to MLB007R1. MLB007R1 macrophages inhibited growth and induced death in human ovarian cancer cell lines. In a further course, A2780 cells were co-incubated with MLB007R1 derivative polarized macrophages and treated. MLB007R1 induces cell death and inhibits ovarian cancer cell growth. Treatment of A2780 cells with MLB007R1 induced cell death after 12 hours. Proliferation of A2780 cultures treated with MLB007R1 was analyzed over 12 hours of continuous treatment.
Cells were plated out and 60 µg/ml MLB007R1 treated macrophages were added to the culture medium 12 h after plating out (24 h preincubation period). The percentage of apoptotic cells was determined at the indicated time points by propidium iodide (PI) staining on semipermeabilized cells as previously described. In this assay, apoptotic cells are identified by hypodiploid DNA content resulting from DNA fragmentation. To assess viability, intact cells were harvested, stained with PI, and analyzed for their plasma membrane permeability to PI by flow cytometry. Cell number was determined by interference light microscopy. The ovarian cancer cells (A2780) were incubated with 60µg/ml MLB007R1 concentration treated macrophages. […]

HepG2 = settings: after 24 hours at 60 µM; cited from earlier work

Row | Structure (SMILES) | number of tumor cells (MCF-7, HUVEC, HepG2; 60 µg/ml, after 12 hours, polarized macrophages) | decreased cell number (MCF-7, HUVEC, HepG2; after only 12 hours of incubation) | cell death ([1]; after 12h) | cell death ([1]; after 24 hours) | cell death ([1]; after 36h) | apoptosis induction (MCF-7 cells; 20 µg/ml (B), 12 hours) | number of apoptotic cells (MCF-7 cells; 40 (C) and 60 (D) µg/ml, 12 hours) | cell death (MCF-7 cells; Diagram B: 20 µg/ml MLB007R1 treated macrophages) | cell death (MCF-7 cells; Diagram C: 20 µg/ml MLB007R1 treated macrophages) | cell death (MCF-7 cells; Diagram D: 60 µg/ml MLB007R1 treated macrophages) | proliferation of A2780 cultures ([2]; 12 hours of continuous treatment) | ovarian cancer cells killed by polarized macrophages ([2]; macrophages incubated in 60µg/ml, 12 h) | effect on tumor cells ([1]; control at 60 µg/ml, compared with resveratrol derivative) | decreased HepG2 cell number (HepG2)
1 | C=COC(=O)COc1ccc(C=Cc2cc(OCC(=O)OC=C)cc(OCC(=O)OC=C)c2)cc1 [MLB007R1, divinyl 2,2'-((5-(4-(2-oxo-2-(vinyloxy)ethoxy)styryl)-1,3-phenylene)bis(oxy))diacetate] | dramatic decrease | more than 90% | 70-85% | 85-92% | approximately 96% | No to little apoptosis induction | increased the number of apoptotic cells | > 50% | > 65% | > 80% | No further growth occurred | more than 80% | – | –
2 | Oc1ccc(C=Cc2cc(O)cc(O)c2)cc1 [resveratrol, 3,4',5-trihydroxy-stilbene, reference compound] | – | – | – | – | – | – | – | – | – | – | – | – | significantly higher | approximately 70%
